For one molecule, IC50, MIC and EC50 results are on record in US7101872B2, “Farnesyl dibenzodiazepinone, and processes for its production” (Ecopia BioSciences, Inc., priority 2003, dated 2006).

Test [1] has as its system GL26. Kind of test: Antiproliferative study, glioma cell lines (MTT). The settings on record: Mus musculus, GL26, Glioblastoma, 96 hrs. It is filed as cell-based, Human. The procedure:
Cells were passaged once a week. Prior to use the cells were detached from the culture flask by treating with trypsin for five to ten minutes. The cells were counted with a Neubauer glass slide and viability assessed by 0.25% trypan blue exclusion. Only flasks with >95% cell viability, were used in the study. Cell lines amplification and plating: Cells, 5×10^3 cells per well in 100 μL drug-free medium supplemented with 10% serum, were plated in 96-well flat bottom microtiter plates and incubated at 37° C. for 48 hrs before treatment. Evaluation of inhibitory activity on cell proliferation: Cells (in triplicate wells) were incubated 96 hrs with medium containing different concentrations of ECO-04601, starting at 5.0 μg/ml (10 μM). The compound was used in a solution of 1% DMSO in D-MEM or RPMI media (or other equivalent media). […] The optical density was measured before incubation (time 0) and following 96 hrs of incubation with test compound in order to measure the growth rate of each cell line.
At the end of the cell treatment, cell culture media was replaced with 150 μl of fresh medium containing 10 mM of 4-(2-hydroxyethyl)-1-piperazineethanesulfonic acid buffer, pH 7.4. […] The optical density was read in each well using a single wavelength spectrophotometer plate reader at 570 nm. […]

Test [2] deals with Micrococcus luteus ATCC 9341. In words: MIC broth microdilution. In kind it is cell-based. The settings on record: ATCC9341, 35° C., 24 hrs. As to the method: (§1) The MIC determination of ECO-04601 against bacteria strains (Bacillus subtilis—ATCC 23857; Micrococcus luteus—ATCC 9341) was performed using broth microdilution assay (Methods for Dilution Antimicrobial Susceptibility Tests for Bacteria That Grow Aerobically; Approved Standard-Fifth Edition. NCCLS document M7-A5 (ISBN 1-56238-394-9). NCCLS, 940 West Valley Road, Suite 1400, Wayne, Pa. 19087-1898 USA.). Test compound preparation: […] The first dilution (3.2 mg/ml) was prepared by resuspending 0.5 mg of each test article in 156.25 μl of DMSO. […] Assay plates were incubated at 35° C. for 24 hrs.
(In general: Broth dilution looks for growth in wells or tubes with falling amounts of substance.)

Test [3] concerns Bacillus subtilis ATCC 23857. In words: MIC broth microdilution. It is filed as cell-based. Conditions: ATCC23857, 35° C., 24 hrs. The procedure:
as §1

The test system of test [4] is U 373. Kind of test: Antiproliferative study, glioma cell lines (MTT). In kind it is cell-based. The settings on record: Homo sapiens, U373 MG, U 373, Astrocytoma, 96 hrs. As to the method: (§2) Cells were passaged once a week. Prior to use the cells were detached from the culture flask by treating with trypsin for five to ten minutes. The cells were counted with a Neubauer glass slide and viability assessed by 0.25% trypan blue exclusion. Only flasks with >95% cell viability, were used in the study. Cell lines amplification and plating: Cells, 5×10^3 cells per well in 100 μL drug-free medium supplemented with 10% serum, were plated in 96-well flat bottom microtiter plates and incubated at 37° C. for 48 hrs before treatment. Evaluation of inhibitory activity on cell proliferation: Cells (in triplicate wells) were incubated 96 hrs with medium containing different concentrations of ECO-04601, starting at 5.0 μg/ml (10 μM). The compound was used in a solution of 1% DMSO in D-MEM or RPMI media (or other equivalent media). The concentrations of ECO-04601 were as follows: 10 μM (5.0 μg/ml), 1 μM (0.50 μg/ml), 0.5 μM (0.25 μg/ml), 0.1 μM (0.050 μg/ml), […] (0.025 μg/ml), 0.01 μM (0.0050 μg/ml), 0.001 μM (0.00050 μg/ml). Negative controls were cells treated with vehicle alone (1% DMSO in culture medium). Positive controls were cells treated with 4 to 6 increasing concentrations of cisplatin (CDDP) (data not shown). The optical density was measured before incubation (time 0) and following 96 hrs of incubation with test compound in order to measure the growth rate of each cell line.
(§3) At the end of the cell treatment, cell culture media was replaced with 150 μl of fresh medium containing 10 mM of 4-(2-hydroxyethyl)-1-piperazineethanesulfonic acid buffer, pH 7.4. Then 50 μl of 2.5 mg/ml of 3-(4,5-dimethylthiazo-2-yl)-2,5-diphenyltetrazolium bromide in PBS pH 7.4, were added to each well and the culture plates incubated for 4 hrs at 37° C. The resulting supernatant was removed and formazan crystals were dissolved with 200 μl of DMSO followed by 25 μl of glycine buffer (0.1 M glycine plus 0.1 M NaCl, pH 10.5). The optical density was read in each well using a single wavelength spectrophotometer plate reader at 570 nm. […] Each of the cell lines was tested in at least 3 independent experiments.

For test [5], the system named is 9L. Kind of test: Antiproliferative study, glioma cell lines (MTT). In kind it is cell-based. Conditions: Rattus norvegicus, Gliosarcoma, 96 hrs. As to the method: as §2, §3
Test [6] relates to GHD. In words: Antiproliferative study, glioma cell lines (MTT). In kind it is cell-based. The settings on record: Homo sapiens, Astrocytoma, 96 hrs. The procedure: as §2, §3
The subject of test [7] is C6. Kind of test: Antiproliferative study, glioma cell lines (MTT). In kind it is cell-based. The settings on record: Rattus norvegicus, C6, Glioblastoma, 96 hrs. The procedure: as §2, §3
For test [8], the system named is GHA. Kind of test: Antiproliferative study, glioma cell lines (MTT). It is filed as cell-based. The settings on record: Homo sapiens, Oligodendroglioma, 96 hrs. The procedure:
as §2, §3

Test [9] concerns DN. Kind of test: Antiproliferative study, glioma cell lines (MTT). In kind it is cell-based. The settings on record: Homo sapiens, Oligodendroglioma, 96 hrs. The procedure:
as §2, §3

The target in test [10] is T1, human 5-LO (Homo sapiens, UniProt P09917).
T1 construct: Human peripheral blood mononuclear cells (PMNs) were isolated through a Ficoll-Paque density gradient; endogenous in cells; host or cells: human peripheral blood cells (PMNs) isolated by Ficoll-Paque, stimulated with A23187
T1 sequence (P09917 whole entry): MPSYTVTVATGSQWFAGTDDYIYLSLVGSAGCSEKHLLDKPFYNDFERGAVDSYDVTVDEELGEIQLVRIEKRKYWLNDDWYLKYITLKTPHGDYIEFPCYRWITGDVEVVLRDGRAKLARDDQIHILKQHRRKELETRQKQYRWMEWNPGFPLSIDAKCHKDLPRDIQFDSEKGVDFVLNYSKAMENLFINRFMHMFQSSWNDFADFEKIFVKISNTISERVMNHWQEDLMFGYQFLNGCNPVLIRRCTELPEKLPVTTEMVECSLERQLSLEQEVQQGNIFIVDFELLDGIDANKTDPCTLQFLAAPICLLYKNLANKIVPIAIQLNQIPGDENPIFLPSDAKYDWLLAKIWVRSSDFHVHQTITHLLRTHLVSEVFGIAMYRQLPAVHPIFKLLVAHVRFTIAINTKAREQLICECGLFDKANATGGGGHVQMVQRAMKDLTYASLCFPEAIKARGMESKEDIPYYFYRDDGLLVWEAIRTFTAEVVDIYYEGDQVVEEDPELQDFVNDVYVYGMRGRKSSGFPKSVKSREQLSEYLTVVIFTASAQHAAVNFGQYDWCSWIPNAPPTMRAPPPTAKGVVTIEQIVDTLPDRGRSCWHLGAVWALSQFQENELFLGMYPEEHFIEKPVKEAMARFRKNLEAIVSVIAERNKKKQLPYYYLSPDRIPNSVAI
In words: Human 5-lipoxygenase activity in stimulated PMNs (Leukotriene B4 EIA). In kind it is cell-based.
Protocol: Experimental Design: Human peripheral blood mononuclear cells (PMNs) were isolated through a Ficoll-Paque density gradient. PMNs were stimulated by addition A23187 (30 μM final concentration). […] Following incubation, samples were neutralized with NaOH and centrifuged. Leukotriene B4 content was measured in the supernatant using an Enzyme Immunosorbant Assay (EIA) assay.

Converted amounts (≈) assume the structure as drawn.

What is called IC50 is the midpoint of a concentration-inhibition curve. In general, MIC refers to the lowest concentration that inhibits growth of the organism. High values mean a need for much substance, low ones inhibition by little substance. One may read the EC50 as the midpoint of the concentration-response curve. Read a high EC50 as lower potency in that assay. In the case of `CC(C)=CCC/C(C)=C/CC/C(C)=C/CN1C(=O)c2cccc(O)c2Nc2c(O)cc(O)cc21` [ECO-04601, 10-farnesyl-4,6,8-trihydroxy-dibenzodiazepin-11-one], the IC50 in [1] came out at 8.93 ± 1.1 µM; in [4], 3.83 ± 1.37 µM; in [5] it was 6.82 ± 2.9 µM; in test [6], 6.29 ± 2.98 µM; in test [7], 4.28 ± 2.82 µM; in test [8], 1.78 ± 0.84 µM. The IC50 in test [9] was 3.26 ± 0.93 µM; in [10] (A23187-stimulated human PMNs, 15 minutes at 37° C., Leukotriene B4 EIA, read-out: apparent IC50, activity of human 5-LO), 0.93 µM. In addition, the MIC in test [2] is 6.25 µg/mL (≈ 13.5 µM); in test [3], 12.5 µg/mL (≈ 27 µM). The same molecule came in with an EC50 in [10] (FIG. 8 legend) of 0.93 µM.
